Data taken from patent publication US8557796B2, “Substituted 1-oxa-2,8-diaza-spiro [4,5] dec-2-ene derivatives and related treatment methods” (Gruenenthal GmbH, priority 2001, dated 2013).

These compounds were tested on batrachotoxin (BTX) binding site (binding site 2) of the sodium channel (assay: Bond test on the sodium channel, binding site 2 (BTX bond), [3H]-batrachotoxinin A20 α-benzoate displacement). Settings: rat cerebrocortex synaptosomes.

Structure (SMILES) | BTX bond, 10 μM, % inhibition [%]
CCOC(=O)N1CCC(NC(=O)C2=NOC3(CCN(C(=O)C4CC4c4ccccc4)CC3)C2)CC1 (stereo not shown) [Example 55, 4-{[8-(2-phenyl-cyclopropanecarbonyl)-1-oxa-2,8-diaza-spiro[4,5]dec-2-ene-3-carbonyl]-amino}-piperidine-1-carboxylic acid ethyl ester] | 47
Cc1ccc(S(=O)(=O)N2CCC3(CC2)CC(C(=O)NCCN(C)C)=NO3)cc1 [Example 57, 8-(toluene-4-sulphonyl)-1-oxa-2,8-diaza-spiro[4,5]dec-2-ene-3-carboxylic acid (2-dimethylamino-ethyl)-amide] | 45
CN1CCCC1CCNC(=O)C1=NOC2(CCN(S(=O)(=O)c3ccc(Cl)s3)CC2)C1 (stereo not shown) [Example 61, 8-(5-chloro-thiophene-2-sulphonyl)-1-oxa-2,8-diaza-spiro[4,5]dec-2-ene-3-carboxylic acid [2-(1-methyl-pyrrolidin-2-yl)-ethyl]-amide] | 79
CCOC(=O)N1CCC(NC(=O)C2=NOC3(CCN(C(=O)c4ccc(Br)cc4)CC3)C2)CC1 [Example 62, 4-{[8-(4-bromo-benzoyl)-1-oxa-2,8-diaza-spiro[4,5]dec-2-ene-3-carbonyl]-amino)-piperidine-l-carboxylic acid ethyl ester] | 49
Cc1ccc(S(=O)(=O)N2CCC3(CC2)CC(C(=O)NCc2cc(Cl)cc(Cl)c2)=NO3)cc1 [Example 63, 8-(toluene-4-sulphonyl)-1-oxa-2,8-diaza-spiro[4,5]dec-2-ene-3-carboxylic acid 3,5-dichlorobenzylamide] | 38
COc1cccc(CN2CCC(NC(=O)C3=NOC4(CCN(S(=O)(=O)c5cc(Cl)ccc5Cl)CC4)C3)C2)c1 (stereo not shown) [Example 64] | 91
CN(C)S(=O)(=O)N1CCC2(CC1)CC(C(=O)N1CCN(Cc3ccc4ccccc4c3)CC1)=NO2 [Example 65, 3-(4-naphthalen-2-ylmethyl-piperazine-1-carbonyl)-1-oxa-2,8-diaza-spiro[4,5]dec-2-ene-8-sulphonic acid dimethylamide] | 67
O=C(C1=NOC2(CCN(S(=O)(=O)Cc3ccccc3)CC2)C1)N1CCN(CCCc2ccccc2)CC1 [Example 69] | 50
COc1cc(OC)cc(N2CCN(C(=O)C3=NOC4(CCN(S(=O)(=O)c5ccc(Cl)s5)CC4)C3)CC2)c1 [Example 71, [8-(5-chloro-thiophene-2-sulphonyl)-1-oxa-2,8-diaza-spiro[4,5]dec-2-en-3-yl]-[4-(3,5-dimethoxy-phenyl)-piperazin-l-yl]-methanone] | 54
CCCC(=O)N1CCC2(CC1)CC(C(=O)NC1CCN(C(=O)OCC)CC1)=NO2 [Example 74, 4-[(8-butyryl-1-oxa-2,8-diaza-spiro[4,5]dec-2-ene-3-carbonyl)-amino]-piperidine-l-carboxylic acid ethyl ester] | 47
O=C(NCC(c1ccccc1)c1ccccc1)C1=NOC2(CCN(S(=O)(=O)c3ccc(Cl)s3)CC2)C1 [Example 79, 8-(5-chloro-thiophene-2-sulphonyl)-1-oxa-2,8-diaza-spiro[4,5]dec-2-ene-3-carboxylic acid (2,2-diphenyl-ethyl)-amide] | 83
CN(C)S(=O)(=O)N1CCC2(CC1)CC(C(=O)N1CCN(CCCc3ccccc3)CC1)=NO2 [Example 80, 3-[4-(3-phenyl-propyl)-piperazine-1-carbonyl]-1-oxa-2,8-diaza-spiro[4,5]dec-2-ene-8-sulphonic acid dimethylamide] | 44
O=C(C1=NOC2(CCN(S(=O)(=O)c3cccc(C(F)(F)F)c3)CC2)C1)N1CCN(CCCc2ccccc2)CC1 [Example 83, [4-(3-phenyl-propyl)-piperazin-1-yl]-[8-(3-trifluoromethyl-benzenesulphonyl)-1-oxa-2,8-diaza-spiro[4,5]dec-2-en-3-yl]-methanone] | 72
CC(NC(=O)C1=NOC2(CCN(S(=O)(=O)c3cccs3)CC2)C1)c1cccc2c1OCCO2 (stereo not shown) [Example 84, 8-(thiophene-2-sulphonyl)-1-oxa-2,8-diaza-spiro[4,5]dec-2-ene-3-carboxylic acid [1-(2,3-dihydro-benzo[1,4]dioxin-5-yl)-ethyl]-amide] | 58
CCCC(=O)N1CCC2(CC1)CC(C(=O)Nc1ccccc1)=NO2 [Example 85, 8-butyryl-1-oxa-2,8-diaza-spiro[4,5]dec-2-ene-3-carboxylic acid phenylamide] | 62
COCCOCC(=O)N1CCC2(CC1)CC(C(=O)NCc1ccccc1)=NO2 [Example 87, 8-[2-(2-methoxy-ethoxy)-acetyl]-1-oxa-2,8-diaza-spiro[4,5]dec-2-ene-3-carboxylic acid benzylamide] | 42
Cc1cc(C(=O)N2CCC3(CC2)CC(C(=O)NCC(C)C)=NO3)ccc1Br [Example 88, 8-(4-bromo-3-methyl-benzoyl)-1-oxa-2,8-diaza-spiro[4,5]dec-2-ene-3-carboxylic acid isobutyl-amide] | 45
CN(CCCNC(=O)C1=NOC2(CCN(S(=O)(=O)c3ccc(Cl)s3)CC2)C1)c1ccccc1 [Example 89] | 81
O=C(C1=NOC2(CCN(S(=O)(=O)c3ccc(Cl)s3)CC2)C1)N1CCN(c2ccc(F)cc2)CC1 [Example 91, [8-(5-chloro-thiophene-2-sulphonyl)-1-oxa-2,8-diaza-spiro[4,5]dec-2-en-3-yl]-[4-(4-fluorophenyl)-piperazin-1-yl]-methanone] | 72
CN(Cc1cccnc1)C(=O)C1=NOC2(CCN(S(=O)(=O)c3cc(Cl)ccc3Cl)CC2)C1 [Example 92, 8-(2,5-dichloro-benzenesulphonyl)-1-oxa-2,8-diaza-spiro[4,5]dec-2-ene-3-carboxylic acid methyl-pyridin-3-ylmethyl-amide] | 65
O=C(Cc1ccc(F)c(F)c1)N1CCN(C(=O)C2=NOC3(CCN(S(=O)(=O)c4cccc(C(F)(F)F)c4)CC3)C2)CC1 [Example 93] | 52
O=C(NCc1cccs1)C1=NOC2(CCN(C(=O)COc3cccc(Cl)c3)CC2)C1 [Example 96, 8-[2-(3-chloro-phenoxy)-acetyl]-1-oxa-2,8-diaza-spiro[4,5]dec-2-ene-3-carboxylic acid (thiophen-2-ylmethyl)-amide] | 72
O=C(C1=NOC2(CCN(S(=O)(=O)c3ccc(OC(F)(F)F)cc3)CC2)C1)N(CCc1ccccc1)Cc1ccccc1 [Example 97, 8-(4-trifluoromethoxy-benzenesulphonyl)-1-oxa-2,8-diaza-spiro[4,5]dec-2-ene-3-carboxylic acid benzyl-phenethyl-amide] | 79

Same assay, conditions: rat cerebrocortex synaptosomes, 10 µM

Structure (SMILES) | BTX bond, 10 μM, % inhibition [%]
Cc1ccc(S(=O)(=O)N2CCC3(CC2)CC(C(=O)NC2CCCC2OCc2ccccc2)=NO3)cc1 (stereo not shown) [Example 67, 8-(toluene-4-sulphonyl)-1-oxa-2,8-diaza-spiro[4,5]dec-2-ene-3-carboxylic acid (2-benzyloxy-cyclopentyl)-amide] | 80
Cc1ccc(S(=O)(=O)N2CCC3(CC2)CC(C(=O)NC2CCCC2OCc2ccccc2)=NO3)cc1 (stereo not shown) [Example 73, 8-(toluene-4-sulphonyl)-1-oxa-2,8-diaza-spiro[4,5]dec-2-ene-3-carboxylic acid (2-benzyloxy-cyclopentyl)-amide] | 75
